In ChEMBL document CHEMBL1145309, “Synthesis of biotinylated photoaffinity probes based on arylsulfonamide gamma-secretase inhibitors” (Bioorg Med Chem Lett, 2006) one finds Ratio IC50 and IC50 data, which are given here for 24 compounds.

What is called IC50 is the concentration that gives 50% inhibition. The low end stands for greater potency, the high end for weaker potency.

What all share (format): protein-complex assay
For test [1], the target named is T1, Gamma-secretase (Homo sapiens) (UniProt Q96BI3+Q9NZ42+Q8WW43+P49768+Q92542+P49810). Kind of test: Inhibition of beta amyloid protein 40 production relative to 4-chloro-N-(2,5-difluorophenyl)-N-(1-(2-(3-(pyrrolidin-1-yl)propoxy)phenyl)ethyl)benzenesulfonamide.
A further test concerns the target Gamma-secretase. Put plainly: Inhibition of beta amyloid protein 40 production.
Test [2] concerns the target T1, Gamma-secretase (Homo sapiens). Put plainly: Inhibition of beta amyloid protein 40 production relative to 4-chloro-N-phenyl-N-(1-(2-(3-(pyrrolidin-1-yl)propoxy)phenyl)ethyl)benzenesulfonamide.

On to `CC(c1ccc(C(=O)c2ccc(COC(=O)NCCCCCNC(=O)CCCC[C@@H]3SC[C@@H]4NC(=O)N[C@@H]43)cc2)cc1OCCCN1CCCC1)N(c1cc(F)ccc1F)S(=O)(=O)c1ccc(Cl)cc1` (some centres undefined), for which the Ratio IC50 in test [1] worked out at 690. At Gamma-secretase, the IC50 was 2.9 nM.
Turning to `CC(c1ccccc1OCCCN1CCCC1)N(c1ccccc1)S(=O)(=O)c1ccccc1` (centres undefined), the IC50 against Gamma-secretase is 690 nM. The Ratio IC50 in test [2] is 0.01.
`CC(c1ccc(C(=O)c2ccccc2)cc1OCCCN1CCCC1)N(c1cc(F)c(OCC(=O)NCCCCCNC(=O)CCCC[C@@H]2SC[C@@H]3NC(=O)N[C@@H]32)cc1F)S(=O)(=O)c1ccc(Cl)cc1` (some centres undefined): in test [1], the Ratio IC50 amounted to 200. Besides, the IC50 against Gamma-secretase amounted to 10 nM.
On Gamma-secretase, `CC(c1ccccc1OCCCN1CCCC1)N(c1ccccc1)S(=O)(=O)c1ccc(C(F)(F)F)cc1` (centres undefined) registered an IC50 of 400 nM. Moreover, the Ratio IC50 in test [2] turned out to be 0.03.
`CC(c1ccc(C(=O)c2ccccc2)cc1OCCCN1CCCC1)N(c1cc(F)ccc1F)S(=O)(=O)c1ccc(Cl)cc1` (centres undefined): the Ratio IC50 in test [1] was 15. The compound also had an IC50 on Gamma-secretase of 130 nM.
`CC(c1ccccc1OCCCN1CCCC1)N(c1ccc(C(=O)c2ccccc2)cc1)S(=O)(=O)c1ccc(Cl)cc1` (centres undefined): in test [1], the Ratio IC50 amounted to 0.6. Further, 3200 nM corresponded to half-maximal inhibition at Gamma-secretase (IC50).
The matching figures for `CC(c1ccccc1OCCCN1CCCC1)N(c1ccccc1Cl)S(=O)(=O)c1ccc(Cl)cc1` (centres undefined): 4 and 490 nM.
Regarding `COc1ccc(N(C(C)c2ccccc2OCCCN2CCCC2)S(=O)(=O)c2ccc(Cl)cc2)cc1` (centres undefined), the Ratio IC50 in test [1] came to 1.8. Half-maximal inhibition against Gamma-secretase (IC50) was put at 1100 nM.
`CC(c1ccc(C(=O)c2ccccc2)cc1OCCCN1CCCC1)N(c1cc(F)c(OCC(=O)NCCCCCCCCNC(=O)CCCC[C@@H]2SC[C@@H]3NC(=O)N[C@@H]32)cc1F)S(=O)(=O)c1ccc(Cl)cc1` (some centres undefined): the Ratio IC50 in test [1] was determined as 100. Also, the IC50 against Gamma-secretase was 20 nM.
On to `COc1cccc(N(C(C)c2ccccc2OCCCN2CCCC2)S(=O)(=O)c2ccc(Cl)cc2)c1` (centres undefined), for which, in test [1], the Ratio IC50 came to 3.8. In addition, on Gamma-secretase, inhibition was half-maximal at 530 nM (IC50).
Compound `CCN(CC)CCCOc1ccccc1C(C)N(c1cc(F)ccc1F)S(=O)(=O)c1ccc(Cl)cc1` (centres undefined) yielded an IC50 against Gamma-secretase of 1000 nM.
For `CC(c1ccccc1OCCCN1CCCC1)N(c1cccc(Cl)c1)S(=O)(=O)c1ccc(Cl)cc1` (centres undefined), the Ratio IC50 in test [1] amounted to 3.8. Besides, the IC50 against Gamma-secretase worked out at 530 nM.
Regarding `CC(c1ccccc1OCCCN1CCCC1)N(c1ccc(Cl)cc1)S(=O)(=O)c1ccc(Cl)cc1` (centres undefined), the Ratio IC50 in test [1] worked out at 1.5. Moreover, the IC50 against Gamma-secretase is 1300 nM.
`CC(c1ccccc1OCCCN1CCOCC1)N(c1cc(F)ccc1F)S(=O)(=O)c1ccc(Cl)cc1` (centres undefined) yielded an IC50 against Gamma-secretase of 4400 nM.
As to `COc1ccccc1N(C(C)c1ccccc1OCCCN1CCCC1)S(=O)(=O)c1ccc(Cl)cc1` (centres undefined), in test [1], the Ratio IC50 was found to be 4.3. Also, half-maximal inhibition on Gamma-secretase (IC50) required 470 nM.
Turning to `CC(c1ccccc1OCCCN1CCCC1)N(c1ccccc1)S(=O)(=O)c1ccc(F)cc1` (centres undefined), at Gamma-secretase, the IC50 was found to be 350 nM. The Ratio IC50 in test [2] is 0.03.
Consider `CC(c1ccc(C(=O)c2ccc(COC(=O)NCCCCCCCCNC(=O)CCCC[C@@H]3SC[C@@H]4NC(=O)N[C@@H]43)cc2)cc1OCCCN1CCCC1)N(c1cc(F)ccc1F)S(=O)(=O)c1ccc(Cl)cc1` (some centres undefined), for which, in test [1], the Ratio IC50 came to 328. The IC50 at Gamma-secretase was 6.1 nM.
The matching figures for `CC(c1ccccc1OCCCN1CCCC1)N(c1cccc(C(=O)c2ccccc2)c1)S(=O)(=O)c1ccc(Cl)cc1` (centres undefined): 0.7 and 3000 nM.
Compound `CC(c1ccccc1OCCCN1CCCC1)N(c1ccccc1)S(=O)(=O)c1ccc(Br)cc1` (centres undefined) displayed an IC50 against Gamma-secretase of 1900 nM. Moreover, in test [2], the Ratio IC50 was found to be 0.005.
As to `CC(c1ccc(C(=O)c2ccccc2)cc1OCCCN1CCCC1)N(c1ccccc1)S(=O)(=O)c1ccc(Cl)cc1` (centres undefined), in test [1], the Ratio IC50 was 0.1. On Gamma-secretase, this compound yielded an IC50 of 17000 nM.
Consider `CC(c1ccccc1OCCCN1CCCC1)N(c1cc(F)ccc1F)S(=O)(=O)c1ccc(Cl)cc1` (centres undefined), for which the IC50 on Gamma-secretase worked out at 2000 nM.
Take `CC(c1ccccc1OCCCN1CCCCC1)N(c1cc(F)ccc1F)S(=O)(=O)c1ccc(Cl)cc1` (centres undefined): at Gamma-secretase, 2100 nM corresponded to half-maximal inhibition (IC50).
`CC(c1ccccc1OCCCN1CCCC1)N(c1ccccc1)S(=O)(=O)c1ccc(Cl)cc1` (centres undefined): the Ratio IC50 in test [1] came to 200. At Gamma-secretase, half-maximal inhibition (IC50) was put at 10 nM.
The corresponding values for `CC(c1ccccc1OCCCN1CCCC1)N(c1ccccc1C(=O)c1ccccc1)S(=O)(=O)c1ccc(Cl)cc1` (centres undefined) are 1.7 and 1200 nM.
